Source: patent publication US9061069B2, “Use of constrained peptide mimic oligomers as vectorization agents” (CENTRE NATIONAL DE LA RECHERCHE SCIENTIFIQUE, priority 2009, dated 2015)
Where a SMILES comes first, the peptide text is derived from it. [ ]: non-standard residue; d: D form. The star is where a group is joined. Sta = CC(C)C[C@H](N)[C@@H](O)CC(=O)O; Isovaleryl = CC(C)CC(=O)*

Tests used:
[1] = system: cells of the line MDA-MB-231; experiment: cytotoxicity, cellular viability test MTT; assay type: cell-based, human; details: incubation of 5 days, 10^-5M
Excerpt: The cytotoxicity of this novel class of molecules has also been determined in cells of the line MDA-MB-231 by using a cellular viability diagnostic test, MTT.

[2] = system: cancerous cells (MDA-MB-231, MCF7, LNCaP, HCT116, SaOs2); experiment: cell growth / proliferation of tumoral lines, incubation for 5 days; assay type: cell-based; details: inhibitor alone
Procedure: FIG. 2 describes the cell growth (in percentage of number of cells with respect to a pepstatin control) of cancerous cells (mammary […] and MCF7, prostatics LNCaP, colic HCT116, osteoblastics SaOs2) as a function of their incubation for 5 days with 1 oligomer of AMPA (4497), pepstatin alone (Peps), [Val^1]-Pepstatin bonded to arginine (4567) and two conjugate inhibitors of cathepsin D-oligomer of AMPA bonded to an arginine residue (4564 and 4463). The negative percentages correspond to a reduction in the number of cells with respect to the initial cellular seeding.
FIG. 3 describes the cell growth (in percentage of number of cells with respect to a pepstatin control) of cancerous cells (MDA-MB-231, MCF7, LNCaP, HCT116, SaOs2) as a function of their incubation for 5 days with 1 oligomer of AMPA (4497), [Val^1]-Pepstatin bonded to conjugated arginine 5 (4567) and 4 [Val^1]-Pepstatin-oligomer of AMPA bonded to a lysine or arginine residue (4461, 4562, 4463, 4564). The negative percentages correspond to a reduction in the number of cells with respect to the initial cellular seeding.
The application of these vectors within the context of a tumoral pathology is now explored. […]

SMILES: NC(=O)CN1C(=O)[C@H](NC(=O)CN2C(=O)[C@H](NC(=O)COCCOCCNC(=S)Nc3ccc4c(c3)C(=O)OC43c4ccc(O)cc4Oc4cc(O)ccc43)CSc3ccccc32)CSc2ccccc21 [JMV4131]
- effect on cellular viability (MTT) [1]: significant effect on cellular viability

SMILES: CC(C)CC(=O)N[C@H](C(=O)N[C@H](C(=O)N[C@@H](CC(C)C)[C@@H](O)CC(=O)N[C@@H](C)C(=O)N[C@@H](CC(C)C)[C@@H](O)CC(=O)O)C(C)C)C(C)C [pepstatin A] (Isovaleryl-VV[Sta]A[Sta]-OH)
- effect on the proliferation of tumoral cells [2]: inactive
